Experimental data as given in ChEMBL document CHEMBL1156900, “Synthesis and anti-influenza virus activity of dihydrofuran-fused perhydrophenanthrenes with a benzyloxy-type side-chain” (2010).
Active and inactive are the calls of the source. The rule behind the calls is not given here.

Each molecule was assayed on H3N2 subtype (assay: Antiviral activity against influenza A virus A/Aichi/2/68 (H3N2) infected in MDCK cells at 10 uM by plaque titration assay relative to control). Details: not given.
Assay type: functional, A/Aichi/2/1968(H3N2)
`N#C[C@]12CCC3(OCCO3)C3=CO[C@H](Cc4cc(OCc5cc(F)cc(F)c5)ccc41)[C@@H]32` was tested, and the Activity was 30%.
Molecule `N#C[C@]12CCC3(OCCO3)C3=CO[C@H](Cc4cc(-c5c(F)cc(F)cc5F)ccc41)[C@@H]32` has an Activity of 70%.
With `N#C[C@]12CCC3(OCCO3)C3=CO[C@H](Cc4cc(OCc5ccccc5)ccc41)[C@@H]32` the Activity was 30%.
Molecule `N#C[C@]12CCC3(OCCO3)C3=CO[C@H](Cc4cc(-c5ccccc5)ccc41)[C@@H]32` has an Activity of 70%.

Same assay, conditions: A/Aichi/2/1968(H3N2)
In the case of `N#C[C@]12CCC3(OCCO3)C3=CO[C@H](Cc4cc(OCc5ccncc5)ccc41)[C@@H]32`, the Activity is reported as “Active”.
For `N#C[C@]12CCC3(OCCO3)C3=CO[C@H](Cc4cc(OCc5ccccn5)ccc41)[C@@H]32`, the Activity was “Active”.
In the case of `N#C[C@]12CCC3(OCCO3)C3=CO[C@H](Cc4cc(OC(F)(F)F)ccc41)[C@@H]32`, the Activity is reported as “Active”.
With `N#C[C@]12CCC3(OCCO3)C3=CO[C@H](Cc4cc(OS(=O)(=O)C(F)(F)F)ccc41)[C@@H]32` the Activity was “inactive”.
With `N#C[C@]12CCC3(OCCO3)C3=CO[C@H](Cc4cc(OCc5cccnc5)ccc41)[C@@H]32` the Activity was “Active”.
`N#C[C@]12CCC3(OCCO3)C3=CO[C@H](Cc4cc(OCc5ccc(COc6ccc7c(c6)C[C@H]6OC=C8[C@H]6[C@@]7(C#N)CCC86OCCO6)cc5)ccc41)[C@@H]32` was tested, and the Activity was “Active”.
